Laboratory results taken from ChEMBL document CHEMBL1201862, “PubChem BioAssay data set” (2004).
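All cell lines were grown in 96-well plates and treated with compound for 48 hours. The concentration for 50% growth inhibition is given as GI50.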 Calls of active or inactive are those of the source. Rule as the data show it: active = GI50 up to about 1.1 µM and inactive = higher.

Key:
Assay in all cases: NCI tumour cell line growth inhibition, 48 h
BT-549 = test system: BT-549
SF-295 = test system: SF-295
Malme-3M = test system: Malme-3M
A549 = test system: A549
OVCAR-3 = test system: OVCAR-3
U-251 = test system: U-251
DU-145 = test system: DU-145
MOLT-4 = test system: MOLT-4
RXF 393 = test system: RXF 393
OVCAR-5 = test system: OVCAR-5
NCI-H460 = test system: NCI-H460
UACC-62 = test system: UACC-62
T47D = test system: T47D
MDA-N = test system: MDA-N
NCI-H23 = test system: NCI-H23
HT-29 = test system: HT-29
IGROV-1 = test system: IGROV-1
SR = test system: SR
EKVX = test system: EKVX
PC-3 = test system: PC-3
LOX IMVI = test system: LOX IMVI
MDA-MB-435 = test system: MDA-MB-435
SK-MEL-5 = test system: SK-MEL-5
MDA-MB-231 = test system: MDA-MB-231
SW-620 = test system: SW-620
ACHN = test system: ACHN
SF-268 = test system: SF-268
OVCAR-8 = test system: OVCAR-8
K562 = test system: K562
HCT-15 = test system: HCT-15
UO-31 = test system: UO-31
UACC-257 = test system: UACC-257
NCI-H226 = test system: NCI-H226
SNB-75 = test system: SNB-75
SK-MEL-28 = test system: SK-MEL-28
786-0 = test system: 786-0
MCF7 = test system: MCF7
SK-MEL-2 = test system: SK-MEL-2
SK-OV-3 = test system: SK-OV-3
HOP-62 = test system: HOP-62
A498 = test system: A498
SN12C = test system: SN12C
RPMI-8226 = test system: RPMI-8226
HOP-92 = test system: HOP-92
SF-539 = test system: SF-539
TK-10 = test system: TK-10
SNB-19 = test system: SNB-19
M14 = test system: M14
Hs-578T = test system: Hs-578T
HCT-116 = test system: HCT-116
COLO 205 = test system: COLO 205
OVCAR-4 = test system: OVCAR-4
NCI/ADR-RES = test system: NCI/ADR-RES
KM12 = test system: KM12
CAKI-1 = test system: CAKI-1
HL-60 = test system: HL-60
CCRF-CEM = test system: CCRF-CEM
HCC 2998 = test system: HCC 2998
NCI-H522 = test system: NCI-H522

In the case of `C=CCCC(=O)C(=[N+]=[N-])C(=O)CCC(=O)c1ccccc1`, the GI50 (BT-549) is reported as > 10 µM (inactive), the GI50 (SF-295) is reported as > 10 µM (inactive) and the GI50 (Malme-3M) is reported as > 10 µM (inactive). For the same molecule, the GI50 (A549) was > 10 µM (inactive), the GI50 (OVCAR-3) was > 10 µM (inactive) and the GI50 (U-251) was > 10 µM (inactive). For the same molecule, the GI50 (DU-145) was > 10 µM (inactive), the GI50 (MOLT-4) was > 10 µM (inactive) and the GI50 (RXF 393) was > 10 µM (inactive). The GI50 (OVCAR-5) was > 10 µM (inactive), the GI50 (NCI-H460) was > 10 µM (inactive) and the GI50 (UACC-62) was > 10 µM (inactive). For the same molecule, the GI50 (T47D) was > 10 µM (inactive), the GI50 (MDA-N) was > 10 µM (inactive) and the GI50 (NCI-H23) was > 10 µM (inactive). For the same molecule, the GI50 (HT-29) was > 10 µM (inactive), the GI50 (IGROV-1) was > 10 µM (inactive) and the GI50 (SR) was > 10 µM (inactive). For the same molecule, the GI50 (EKVX) was > 10 µM (inactive), the GI50 (PC-3) was > 10 µM (inactive) and the GI50 (LOX IMVI) was > 10 µM (inactive). The GI50 (MDA-MB-435) was > 10 µM (inactive), the GI50 (SK-MEL-5) was > 10 µM (inactive) and the GI50 (MDA-MB-231) was > 10 µM (inactive). The GI50 (SW-620) was > 10 µM (inactive), the GI50 (ACHN) was > 10 µM (inactive) and the GI50 (SF-268) was > 10 µM (inactive). For the same molecule, the GI50 (OVCAR-8) was > 10 µM (inactive), the GI50 (K562) was > 10 µM (inactive) and the GI50 (HCT-15) was > 10 µM. For the same molecule, the GI50 (UO-31) was > 10 µM (inactive), the GI50 (UACC-257) was > 10 µM (inactive) and the GI50 (NCI-H226) was > 10 µM (inactive). The GI50 (SNB-75) was 8.38 µM (inactive), the GI50 (SK-MEL-28) was > 10 µM (inactive) and the GI50 (786-0) was > 10 µM (inactive). For the same molecule, the GI50 (MCF7) was > 10 µM (inactive), the GI50 (SK-MEL-2) was > 10 µM (inactive) and the GI50 (SK-OV-3) was > 10 µM (inactive). The GI50 (HOP-62) was > 10 µM (inactive), the GI50 (A498) was > 10 µM (inactive) and the GI50 (SN12C) was > 10 µM (inactive). For the same molecule, the GI50 (RPMI-8226) was > 10 µM (inactive), the GI50 (HOP-92) was > 10 µM (inactive) and the GI50 (SF-539) was > 10 µM (inactive). For the same molecule, the GI50 (TK-10) was > 10 µM (inactive), the GI50 (SNB-19) was > 10 µM (inactive) and the GI50 (M14) was > 10 µM (inactive). For the same molecule, the GI50 (Hs-578T) was > 10 µM (inactive).

For `O=C(O)c1ccc(Cc2ccccc2C(=O)O)cc1`, the GI50 (BT-549) was > 100 µM (inactive), the GI50 (SF-295) was > 100 µM (inactive) and the GI50 (Malme-3M) was > 100 µM (inactive). The GI50 (A549) was > 100 µM (inactive), the GI50 (OVCAR-3) was > 100 µM (inactive) and the GI50 (U-251) was > 100 µM (inactive). The GI50 (HCT-116) was > 100 µM (inactive), the GI50 (COLO 205) was > 100 µM (inactive) and the GI50 (RXF 393) was > 100 µM (inactive). For the same molecule, the GI50 (OVCAR-5) was > 100 µM (inactive), the GI50 (NCI-H460) was > 100 µM (inactive) and the GI50 (UACC-62) was > 100 µM (inactive). The GI50 (OVCAR-4) was > 100 µM (inactive), the GI50 (T47D) was > 100 µM (inactive) and the GI50 (MDA-N) was > 100 µM (inactive). The GI50 (NCI/ADR-RES) was > 100 µM (inactive), the GI50 (KM12) was > 100 µM (inactive) and the GI50 (NCI-H23) was > 100 µM (inactive). The GI50 (HT-29) was > 100 µM (inactive), the GI50 (IGROV-1) was > 100 µM (inactive) and the GI50 (SR) was > 100 µM (inactive). The GI50 (EKVX) was > 100 µM (inactive), the GI50 (PC-3) was > 100 µM (inactive) and the GI50 (LOX IMVI) was > 100 µM (inactive). The GI50 (MDA-MB-435) was > 100 µM (inactive), the GI50 (SK-MEL-5) was > 100 µM (inactive) and the GI50 (MDA-MB-231) was > 100 µM (inactive). For the same molecule, the GI50 (CAKI-1) was > 100 µM (inactive), the GI50 (SW-620) was > 100 µM (inactive) and the GI50 (ACHN) was > 100 µM (inactive). For the same molecule, the GI50 (SF-268) was > 100 µM (inactive), the GI50 (OVCAR-8) was > 100 µM (inactive) and the GI50 (K562) was > 100 µM (inactive). The GI50 (HL-60) was > 100 µM (inactive), the GI50 (HCT-15) was > 100 µM and the GI50 (UO-31) was > 100 µM (inactive). For the same molecule, the GI50 (UACC-257) was > 100 µM (inactive), the GI50 (NCI-H226) was > 100 µM (inactive) and the GI50 (SNB-75) was 49.5 µM (inactive). For the same molecule, the GI50 (SK-MEL-28) was > 100 µM (inactive), the GI50 (CCRF-CEM) was > 100 µM (inactive) and the GI50 (786-0) was > 100 µM (inactive). The GI50 (MCF7) was > 100 µM (inactive), the GI50 (SK-MEL-2) was > 100 µM (inactive) and the GI50 (SK-OV-3) was > 100 µM (inactive). For the same molecule, the GI50 (HOP-62) was > 100 µM (inactive), the GI50 (HCC 2998) was > 100 µM (inactive) and the GI50 (A498) was > 100 µM (inactive). For the same molecule, the GI50 (SN12C) was > 100 µM (inactive), the GI50 (RPMI-8226) was > 100 µM (inactive) and the GI50 (HOP-92) was > 100 µM (inactive). The GI50 (SF-539) was > 100 µM (inactive), the GI50 (TK-10) was > 100 µM (inactive) and the GI50 (SNB-19) was > 100 µM (inactive). For the same molecule, the GI50 (M14) was > 100 µM (inactive), the GI50 (Hs-578T) was > 100 µM (inactive) and the GI50 (NCI-H522) was > 100 µM (inactive).

In the case of `Nc1nc(N)c2cc(Sc3ccc4nc(N)nc(N)c4c3)ccc2n1`, the GI50 (BT-549) is reported as > 100 µM (inactive), the GI50 (A549) is reported as < 0.01 µM (active) and the GI50 (OVCAR-3) is reported as > 31.6 µM (inactive). For the same molecule, the GI50 (U-251) was > 100 µM (inactive), the GI50 (DU-145) was 1.13 µM (inactive) and the GI50 (HCT-116) was 0.2 µM (active). For the same molecule, the GI50 (MOLT-4) was 0.0524 µM (active), the GI50 (COLO 205) was 10.9 µM (inactive) and the GI50 (RXF 393) was > 100 µM (inactive). For the same molecule, the GI50 (OVCAR-5) was > 100 µM (inactive), the GI50 (NCI-H460) was < 0.0145 µM (active) and the GI50 (OVCAR-4) was > 100 µM (inactive). The GI50 (T47D) was > 44.2 µM (inactive), the GI50 (MDA-N) was > 100 µM (inactive) and the GI50 (NCI/ADR-RES) was > 31.6 µM (inactive). For the same molecule, the GI50 (KM12) was 2.15 µM (inactive), the GI50 (HT-29) was 0.0933 µM (active) and the GI50 (IGROV-1) was 0.514 µM (active). For the same molecule, the GI50 (SR) was > 100 µM (inactive), the GI50 (EKVX) was > 100 µM (inactive) and the GI50 (LOX IMVI) was 0.0408 µM (active). For the same molecule, the GI50 (MDA-MB-435) was 0.0522 µM (active), the GI50 (MDA-MB-231) was > 100 µM (inactive) and the GI50 (CAKI-1) was > 100 µM (inactive). For the same molecule, the GI50 (ACHN) was 0.493 µM (active), the GI50 (SF-268) was 0.136 µM (active) and the GI50 (OVCAR-8) was 0.181 µM (active). For the same molecule, the GI50 (K562) was < 0.01 µM (active), the GI50 (HL-60) was 0.0533 µM (active) and the GI50 (HCT-15) was 0.659 µM. For the same molecule, the GI50 (UO-31) was > 100 µM (inactive), the GI50 (UACC-257) was > 100 µM (inactive) and the GI50 (NCI-H226) was > 29.2 µM (inactive). For the same molecule, the GI50 (SNB-75) was > 100 µM (inactive), the GI50 (SK-MEL-28) was > 100 µM (inactive) and the GI50 (CCRF-CEM) was 0.0194 µM (active). The GI50 (SK-MEL-2) was > 100 µM (inactive), the GI50 (SK-OV-3) was > 100 µM (inactive) and the GI50 (HOP-62) was > 100 µM (inactive). The GI50 (HCC 2998) was 0.558 µM (active), the GI50 (A498) was > 100 µM (inactive) and the GI50 (RPMI-8226) was 4.89 µM (inactive). The GI50 (HOP-92) was > 100 µM (inactive), the GI50 (SF-539) was > 100 µM (inactive) and the GI50 (TK-10) was > 100 µM (inactive). For the same molecule, the GI50 (SNB-19) was 4.23 µM (inactive), the GI50 (M14) was > 100 µM (inactive) and the GI50 (Hs-578T) was > 100 µM (inactive).
